Here are results for five molecules from patent publication US12473294B2, “Selective modulators of mutant LRRK2 proteolysis and associated methods of use” (Arvinas Operations, Inc., priority 2020, dated 2025).

By DC50 is commonly meant the midpoint of the concentration-degradation curve. In general, Dmax refers to the largest share of the target that was removed.

Assay [1] concerns the target T1, wildtype LRRK2 (Homo sapiens, UniProt Q5S007).
T1 construct: endogenous in cells; host or cells: HEK293 with HiBit knocked in at the 3' end of the endogenous LRRK2 gene, stably expressing firefly luciferase
The assay is described as follows: LRRK2 degradation HiBit assay, wildtype LRRK2 tagged with a HiBit tag in HEK293 cells. The assay is classed as cell-based. The following applies: 24 hours compound incubation; for DC50: read-out: *WT DC50; for Dmax: read-out: ** WT Dmax (%). As for the experimental part:
The assay measures the degradation of wildtype and G2019S LRRK2 tagged with a HiBit tag on the C-terminus of the protein that was expressed from a mammalian expression vector, driven by the ubiquitin promoter in HEK293 cells. Each compound dose-response was repeated on two separate days, on three separate plates each day.
(§1) Plasmid Preparation. Transfection mixes were assembled as follows and incubated for 30 minutes at room temperature. In a 15 mL tube, 5.25 mL Opti-MEM (no additions) was mixed with 17 μL Firefly Luciferase plasmid at 1 μg/μL and 158 μL WT plasmid DNA at 1 μg/μL (175 μg total DNA) were mixed by flicking. In a new 15 mL tube, 5.25 mL OptiMEM was mixed with 17 μL Firefly Luciferase plasmid at 1 μg/μL and 158 μL G2019S plasmid DNA at 1 μg/μL (175 μg total DNA) were mixed by flicking. X-tremeGene HP was mixed thoroughly using a vortex. Next, 175 μL was added to each tube and flicked to mix. Both tubes were left to incubate for 30 minutes at room temperature.
While the transfection mixes were incubating, HEK293 cells (acquired from ATCC; ATCC CRL-1573) were harvested with trypsin. Once cells are detached, the cells were resuspended in 12 mL OptiMEM+5% FBS and transferred to a 50 mL tube. The cells were mixed well and counted. Using OptiMEM+5% FBS, the cells were diluted in two 250 mL conical tubes at 0.71×10^6 cells/mL in 70 mL. One tube was labeled “WT” and the other “G2019S”. The WT and G2019S transfection mixes were added dropwise to the corresponding 250 mL tubes. The tubes were mixed first by pipetting then by swirling. The tubes were incubated at room temperature for at least 5 minutes.
(§2) Each tube was swirled before dispensing and after every three plates. Seventy microliters of cells were dispensed with WT or G2019S DNA to seven plates each. Three plates of each were tested with compound plate one (preparation described below) and three plates of each were tested with compound plate two (preparation described below). The first plate from each set served as a “prime” plate and was not used to test compounds. Each plate was incubated in the hood for 10 minutes before placing in the 37° C. incubator for 24 hours.
(§3) Preparation of Compound and Assay Plates. Two compound plates were made using 96 well polypropylene plates. Compounds were made up at 10 mM and were diluted to 1 mM in 30 μL. Each dose response curve included a well of DMSO, as a negative control and for normalization, and a well of 0.5 μM of Exemplary Compound 4 as a positive control. In addition to seven test compounds, each plate also included a dose response of Exemplary Compound 4. The compound plates were spun down along at 1200 rpm for 2 minutes.
(§4) The two compound plates were then mixed and 2 μL was diluted in intermediate plates having 248 μL of Opti-Mem in each well. Next, 10 μL diluted compounds from the intermediate plates were added to each test plate (three WT and three G2019S plates per compound plate for a total of 12 assay plates). The plates were incubated for 24 hours at 37° C.
(§5) All assay plates and all Nano-Glo Dual-Luciferase Reporter Assay System components (except for the DLR substrate) were equilibrated to room temperature. Next, the luciferase buffer was mixed with the lyophilized amber bottle until fully dissolved, and 75 μL of the luciferase mixture was added to each well of each assay plate. The assay plates were incubated for 10 minutes at room temperature with shaking for at least 5 minutes, and then read on a plate reader.
(§6) Developing Plates and Analyzing Data. One milliliter of DLR substrate and 1 mL LgBiT Protein were added to the Stop and Glo buffer, and 75 μL of the mixture was added to each well of each plate. Optically clear seals were added to each plate and each plate was incubated for 20 minutes with shaking for at least 10 minutes, and then read on a plate reader. […]
(HiBiT is a short tag that completes a luciferase, so light tracks the accessible tagged protein.)

The target of assay [2] is T2, G2019S LRRK2 (Homo sapiens, UniProt Q5S007, G2019S).
T2 construct: expressed in transfected cells; host or cells: HEK293 (ATCC CRL-1573)
T2 sequence (Q5S007 whole entry G2019S): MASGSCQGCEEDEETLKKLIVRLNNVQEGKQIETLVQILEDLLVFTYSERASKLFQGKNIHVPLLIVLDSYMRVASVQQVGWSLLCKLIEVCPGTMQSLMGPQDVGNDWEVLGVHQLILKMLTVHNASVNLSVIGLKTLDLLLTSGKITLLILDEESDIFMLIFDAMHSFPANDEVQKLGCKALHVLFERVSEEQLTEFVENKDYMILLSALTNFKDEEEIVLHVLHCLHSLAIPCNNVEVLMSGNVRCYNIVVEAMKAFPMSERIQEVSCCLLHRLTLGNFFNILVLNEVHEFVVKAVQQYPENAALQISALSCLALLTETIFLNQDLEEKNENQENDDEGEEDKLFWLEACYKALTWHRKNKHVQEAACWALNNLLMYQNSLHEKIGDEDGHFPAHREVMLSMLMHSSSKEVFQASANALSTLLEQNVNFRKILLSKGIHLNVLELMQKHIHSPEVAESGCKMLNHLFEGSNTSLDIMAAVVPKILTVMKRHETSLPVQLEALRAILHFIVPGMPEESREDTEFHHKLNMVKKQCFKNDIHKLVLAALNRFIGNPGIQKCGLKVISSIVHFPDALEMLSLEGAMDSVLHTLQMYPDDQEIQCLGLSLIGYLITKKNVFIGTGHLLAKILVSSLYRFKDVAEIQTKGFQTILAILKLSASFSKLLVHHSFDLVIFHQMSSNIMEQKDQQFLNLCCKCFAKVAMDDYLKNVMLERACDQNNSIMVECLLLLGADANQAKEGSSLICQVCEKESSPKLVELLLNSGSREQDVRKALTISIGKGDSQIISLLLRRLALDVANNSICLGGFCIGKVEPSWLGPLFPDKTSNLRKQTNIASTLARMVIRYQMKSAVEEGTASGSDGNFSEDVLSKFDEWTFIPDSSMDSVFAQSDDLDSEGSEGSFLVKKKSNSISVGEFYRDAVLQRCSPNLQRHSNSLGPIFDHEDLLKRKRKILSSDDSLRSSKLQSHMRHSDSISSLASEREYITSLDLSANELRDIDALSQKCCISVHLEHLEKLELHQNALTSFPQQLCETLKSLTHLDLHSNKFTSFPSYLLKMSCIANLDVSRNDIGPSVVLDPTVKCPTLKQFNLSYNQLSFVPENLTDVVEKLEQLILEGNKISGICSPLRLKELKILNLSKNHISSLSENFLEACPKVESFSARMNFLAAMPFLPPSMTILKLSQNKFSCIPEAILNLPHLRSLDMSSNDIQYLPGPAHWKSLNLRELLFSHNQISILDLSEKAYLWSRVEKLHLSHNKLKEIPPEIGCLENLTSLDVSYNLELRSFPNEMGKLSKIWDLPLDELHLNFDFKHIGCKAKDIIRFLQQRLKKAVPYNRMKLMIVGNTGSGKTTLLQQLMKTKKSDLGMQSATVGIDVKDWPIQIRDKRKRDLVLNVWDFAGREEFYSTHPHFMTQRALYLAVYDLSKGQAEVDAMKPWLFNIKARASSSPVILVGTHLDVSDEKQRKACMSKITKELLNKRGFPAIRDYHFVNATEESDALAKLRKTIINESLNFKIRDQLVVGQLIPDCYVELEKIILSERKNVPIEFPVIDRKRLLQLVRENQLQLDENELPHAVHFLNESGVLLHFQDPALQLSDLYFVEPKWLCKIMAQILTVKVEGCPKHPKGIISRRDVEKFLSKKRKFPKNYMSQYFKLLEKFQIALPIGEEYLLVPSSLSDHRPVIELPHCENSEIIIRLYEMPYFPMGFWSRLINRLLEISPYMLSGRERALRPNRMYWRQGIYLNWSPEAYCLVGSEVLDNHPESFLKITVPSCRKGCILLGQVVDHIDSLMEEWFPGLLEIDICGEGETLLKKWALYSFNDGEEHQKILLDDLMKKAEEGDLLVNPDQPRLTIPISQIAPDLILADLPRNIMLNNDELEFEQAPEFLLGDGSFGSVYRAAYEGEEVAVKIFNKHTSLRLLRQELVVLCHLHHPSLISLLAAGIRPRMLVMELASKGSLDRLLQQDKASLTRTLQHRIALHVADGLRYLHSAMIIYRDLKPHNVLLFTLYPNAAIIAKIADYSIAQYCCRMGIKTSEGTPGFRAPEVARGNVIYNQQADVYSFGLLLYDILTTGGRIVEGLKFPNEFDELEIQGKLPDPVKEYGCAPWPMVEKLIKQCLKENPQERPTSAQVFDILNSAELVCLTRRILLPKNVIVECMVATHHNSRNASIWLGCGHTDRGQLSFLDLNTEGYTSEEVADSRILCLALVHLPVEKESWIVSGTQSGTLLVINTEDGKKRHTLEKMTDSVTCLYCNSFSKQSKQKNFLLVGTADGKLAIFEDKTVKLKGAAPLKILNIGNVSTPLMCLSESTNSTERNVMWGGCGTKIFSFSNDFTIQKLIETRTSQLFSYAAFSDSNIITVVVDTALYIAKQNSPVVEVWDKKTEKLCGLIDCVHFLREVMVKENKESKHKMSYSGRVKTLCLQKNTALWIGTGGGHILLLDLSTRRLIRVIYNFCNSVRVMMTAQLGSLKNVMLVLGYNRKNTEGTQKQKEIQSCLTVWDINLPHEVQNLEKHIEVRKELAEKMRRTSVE
Kind of assay: LRRK2 degradation HiBit assay, G2019S LRRK2 tagged with a HiBit tag expressed in HEK293 cells. In kind it is cell-based. The following applies: 24 hours compound incubation; for Dmax: HEK293, HEK293 cells; for DC50: HEK293 cells. As to the method:
The assay measures the degradation of wildtype and G2019S LRRK2 tagged with a HiBit tag on the C-terminus of the protein that was expressed from a mammalian expression vector, driven by the ubiquitin promoter in HEK293 cells. Each compound dose-response was repeated on three separate days, on three separate plates each day.
as §1
While the transfection mixes were incubating, HEK293 cells acquired from ATCC (ATCC CRL-1573) were harvested with trypsin. Once cells are detached, the cells were resuspended in 12 mL OptiMEM+5% FBS and transferred to a 50 mL tube. The cells were mixed well and counted. Using OptiMEM+5% FBS, the cells were diluted in two 250 mL conical tubes at 0.71×10^6 cells/mL in 70 mL. One tube was labeled “WT” and the other “G2019S”. The WT and G2019S transfection mixes were added dropwise to the corresponding 250 mL tubes. The tubes were mixed first by pipetting then by swirling. The tubes were incubated at room temperature for at least 5 minutes.
as §2, §3, §4, §5, §6

T1 sequence (Q5S007 whole entry): as the sequence (Q5S007 whole entry G2019S) above, with S2019G counted along it

As for `CC1=C(C(=O)Nc2ccc3[nH]nc(-c4ccnc(N5CCN(CC6CCN(CC7CCN(c8ccc9c(c8)C(=O)N(C8CCC(=O)NC8=O)C9=O)CC7)CC6)CC5)c4)c3c2)[C@H](C)n2nnnc2N1C` (stereo partly drawn) [compound 12, (7S)-N-(3-(2-(4-((1-((1-(2-(2,6-dioxopiperidin-3-yl)-1,3-dioxoisoindolin-5-yl)piperidin-4-yl)methyl)piperidin-4-yl)methyl)piperazin-1-yl)pyridin-4-yl)-1H-indazol-5-yl)-4,5,7-trimethyl-4,7-dihydrotetrazolo[1,5-a]pyrimidine-6-carboxamide], the DC50 in assay [1] is ≥ 100 nM. Moreover, in assay [2], the Dmax was < 50% and the 50% degradation concentration (DC50) was ≥ 100 nM.
In the case of `CC1=C(C(=O)Nc2ccc3[nH]nc(-c4ccnc(N5CCN(CC6CCN(CC7CCN(c8ccc9c(c8)C(=O)N(C8CCC(=O)NC8=O)C9=O)CC7)CC6)CC5)c4)c3c2)Cn2nnnc2N1C` (stereo not shown) [compound 13, N-(3-(2-(4-((1-((1-(2-(2,6-dioxopiperidin-3-yl)-1,3-dioxoisoindolin-5-yl)piperidin-4-yl)methyl)piperidin-4-yl)methyl)piperazin-1-yl)pyridin-4-yl)-1H-indazol-5-yl)-4,5-dimethyl-4,7-dihydrotetrazolo[1,5-a]pyrimidine-6-carboxamide], in assay [1], the Dmax was < 50% and the 50% degradation concentration (DC50) was ≥ 100 nM. Also, in assay [2], the Dmax fell in the range of 50 to 70% and the 50% degradation concentration (DC50) lay within 10 to 50 nM.
For the molecule `CC1=C(C(=O)Nc2ccc3[nH]nc(-c4ccnc(N5CCN(CCC6CCN(CC7CCN(c8ccc9c(c8)C(=O)N(C8CCC(=O)NC8=O)C9=O)CC7)CC6)CC5)c4)c3c2)[C@@H](C)n2nnnc2N1C` (stereo partly drawn) [compound 14, (7R)-N-(3-(2-(4-(2-(1-((1-(2-(2,6-dioxopiperidin-3-yl)-1,3-dioxoisoindolin-5-yl)piperidin-4-yl)methyl)piperidin-4-yl)ethyl)piperazin-1-yl)pyridin-4-yl)-1H-indazol-5-yl)-4,5,7-trimethyl-4,7-dihydrotetrazolo[1,5-a]pyrimidine-6-carboxamide], in assay [1], the maximal degradation (Dmax) lay in the range of 50 to 70% and the DC50 was ≥ 100 nM. Moreover, in assay [2], the Dmax is < 50% and the 50% degradation concentration (DC50) fell in the range of 50 to 100 nM.
For `CC1=C(C(=O)Nc2ccc3[nH]nc(-c4ccnc(N5CCN(CCCN6CCN(c7ccc8c(c7)C(=O)N(C7CCC(=O)NC7=O)C8=O)CC6)CC5)c4)c3c2)[C@@H](C)n2nnnc2N1C` (stereo partly drawn) [compound 15, (7R)-N-(3-(2-(4-(3-(4-(2-(2,6-dioxopiperidin-3-yl)-1,3-dioxoisoindolin-5-yl)piperazin-1-yl)propyl)piperazin-1-yl)pyridin-4-yl)-1H-indazol-5-yl)-4,5,7-trimethyl-4,7-dihydrotetrazolo[1,5-a]pyrimidine-6-carboxamide] the same measures were 50 to 70%, ≥ 100 nM, 50 to 70% and 10 to 50 nM.
In the case of `CC1=C(C(=O)Nc2ccc3[nH]nc(-c4ccnc(N5CCN(CC6CN(CC7CCN(c8ccc9c(c8)C(=O)N(C8CCC(=O)NC8=O)C9=O)CC7)C6)CC5)c4)c3c2)[C@@H](C)n2nnnc2N1C` (stereo partly drawn) [compound 17, (7R)-N-(3-(2-(4-((1-((1-(2-(2,6-dioxopiperidin-3-yl)-1,3-dioxoisoindolin-5-yl)piperidin-4-yl)methyl)azetidin-3-yl)methyl)piperazin-1-yl)pyridin-4-yl)-1H-indazol-5-yl)-4,5,7-trimethyl-4,7-dihydrotetrazolo[1,5-a]pyrimidine-6-carboxamide], in assay [1], the Dmax was in the range of 50 to 70% and the DC50 was ≥ 100 nM. In assay [2], this molecule displayed a maximal degradation (Dmax) of 50 to 70% and a DC50 of 50 to 100 nM.
